Reference: paper PMC8619001, “Discovery of New Ginsenol-Like Compounds with High Antiviral Activity” (Molecules, 2021)
pIC50: −log10 of the molar value.

Tested on: influenza virus A/Puerto Rico/8/34 (H1N1), GS-R virus
Test: microbe, parasite or virus in culture
Format: cell-based

**Q.** Which results are given for `CC(=O)NC12CC(C)(C)C3CCC1(C)CCCC32C` [Compound 1a, (1S,3aR,4R,7aS)-N-(2,2,4,7a-tetramethyloctahydro-1,4-etanoinden-3a-yl)-acetamide]?
**A.** Fold increase of IC50 versus virus passaged without GS: almost five-fold higher; pIC50 (unidentified influenza virus, H1N1, MDCK, read-out: IC50 to GS): 3.97
